Test results reported in patent publication US20140148484A1, “PYRAZOLE COMPOUNDS FOR TREATING HAIRLOSS” (Boehringer Ingelheim International GmbH, priority 2012, published 2014).

target: T1, human CRTH2 receptor (Homo sapiens, UniProt Q9Y5Y4); assay: Human CRTH2 receptor membrane radioligand binding assay (SPA, [3H]-PGD2); conditions: displacement of [3H]-PGD2 (1 nM) from CHO-K1-hCRTH2 cell membranes, 3 h room temperature
T1 construct: host or cells: CHO-K1 (CHO-K1-hCRTH2 cells); membranes prepared in house from the purchased cell line
T1 sequence (Q9Y5Y4 1-395): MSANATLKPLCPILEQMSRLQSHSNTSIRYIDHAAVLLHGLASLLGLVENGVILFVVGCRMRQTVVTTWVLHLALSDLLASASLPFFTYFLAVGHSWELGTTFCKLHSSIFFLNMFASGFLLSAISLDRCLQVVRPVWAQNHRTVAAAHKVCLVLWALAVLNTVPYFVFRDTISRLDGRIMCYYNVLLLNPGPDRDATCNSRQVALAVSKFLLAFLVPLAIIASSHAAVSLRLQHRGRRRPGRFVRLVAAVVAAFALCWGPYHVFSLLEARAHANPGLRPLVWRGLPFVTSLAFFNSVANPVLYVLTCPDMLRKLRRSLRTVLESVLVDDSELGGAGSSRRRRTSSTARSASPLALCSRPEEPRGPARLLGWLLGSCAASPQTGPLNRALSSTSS
Experimental: Preparation of Human CRTH2 Receptor Membranes and Radioligand Binding Assay
The binding of CRTH2 antagonists is determined using membranes prepared from Chinese hamster ovary cells (CHO-K1 cells) transfected with the human CRTH2 receptor (CHO-K1-hCRTH2 cells, Perkin Elmer, Cat No ES-561-C). To produce cell membranes the CHO-K1-hCRTH2 cells are cultured in suspension in CHO SFMII medium supplemented with 400 μg/ml G418. The cells are harvested by centrifugation at 300 g for 10 min at room temperature. The cell pellet is resuspended in Phosphate Buffer Saline (PBS) including a protease inhibitor mix (Complete, Roche) and adjusted to a concentration of 10E7 cells/ml. The CHO-K1-hCRTH2 cells are disrupted by nitrogen […] to obtain the membrane preparation. Cell debris is removed by centrifugation (500 g at 4° C., 30 min) and the supernatant is transferred into fresh tubes followed by a second centrifugation at 40000 g for 1 h at 4° C. to sediment the membranes. The membranes are suspended in SPA incubation buffer (50 mM Tris HCl, 10 mM MgCl2, 150 mM NaCl, 1 mM EDTA, pH 7.4) without bovine serum albumin, homogenized by passing through a single use needle (Terumo, 23G×1″), and stored in aliquots at −80° C.
The CRTH2 receptor binding assay is performed in a scintillation proximity assay (SPA) format with the radioligand [^3H]-PGD2 (Perkin Elmer, NET616000MC). CHO-K1-hCRTH2 cell membranes are again homogenized by passing through a single use needle (Terumo, 23G×1″) and diluted in SPA incubation buffer in suitable concentrations (0.5-10 μg protein/well). The SPA assay is set up in 96 well microtiter plates (Perkin Elmer, CatNo. 6005040) in SPA incubation buffer with a final volume of 200 μl per well and final concentration of 50 mM Tris-HCl, 10 mM MgCl2, 150 mM NaCl, 1 mM EDTA pH 7.4, 0.1% bovine serum albumin). The SPA assay mixture contains 60 μl of the membrane suspension, 80 μl of Wheat Germ Agglutinin coated PVT beads (GE Healthcare, RPNQ-0001, 0.3 mg/well), 40 μl of [3H]-PGD2 diluted in SPA buffer to a final concentration of 1 nM (50 000 dpm) and 20 μl of the test compound (dissolved in dimethylsulfoxid). The SPA assay mixture is incubated for 3 h at room temperature. Bound radioactivity is determined with a scintillation counter (Micro Beta Trilux, Wallac).
The binding of [^3H]-PGD2 to CHO-K1-hCRTH2 cell membranes is determined in the absence (total binding, Bo) and presence (non-specific binding, NSB) of unlabelled PGD2 (1 μM, Cayman Chemical, Cat No 12010) or a reference CRTH2 antagonist (10 μM CAY10471, Cayman Chemical, Cat No 10006735).
Determination of the affinity of a test compound is calculated by subtraction of the non-specific binding (NSB) from the total binding (Bo) or the binding in the presence of the test compound (B) at a given compound concentration. […] The Bo−NSB value is set to 0% inhibition.

Compound	Ki [nM]
Cc1nn(Cc2ccc(NC(=O)c3ccc(C(F)(F)F)cc3)cc2Cl)c(C)c1CC(=O)O [Example 7.8]	0.8
Cc1nn(Cc2ccc(NC(=O)CCc3ccccc3)cc2Cl)c(C)c1CC(=O)O [Example 7.9]	2.5
Cc1nn(Cc2ccc(NC(=O)c3ccccc3)cc2Cl)c(C)c1CC(=O)O [Example 7.10]	5.5
Cc1nn(Cc2ccc(NC(=O)/C=C/c3ccccc3)cc2Cl)c(C)c1CC(=O)O [Example 7.11]	0.9
Cc1nn(Cc2ccc(NC(=O)c3ccc4ccccc4c3)cc2Cl)c(C)c1CC(=O)O [Example 7.13]	1.3
Cc1nn(Cc2ccc(NC(=O)c3ccc(Cl)c(Cl)c3)cc2Cl)c(C)c1CC(=O)O [Example 7.15]	0.6
Cc1nn(Cc2ccc(NC(=O)c3ccc(Cl)c(Cl)c3)cc2F)c(C)c1CC(=O)O [Example 7.18]	2.4
Cc1cc(Cl)ccc1C(=O)Nc1ccc(Cn2nc(C)c(CC(=O)O)c2C)c(F)c1 [Example 7.19]	5.8
Cc1nn(Cc2ccc(NC(=O)c3ccccc3)cc2)c(C)c1CCC(=O)O [Example 8.3]	3760
Cc1nn(Cc2ccc(NC(=O)c3ccc(C(C)(C)C)cc3)cc2)c(C)c1CCC(=O)O [Example 8.4]	26.1
Cc1nn(Cc2ccc(NC(=O)CCc3ccccc3)cc2)c(C)c1CCC(=O)O [Example 8.5]	427
Cc1cc(C(F)(F)F)ccc1C(=O)Nc1ccc(Cn2nc(C)c(CCC(=O)O)c2C)cc1 [Example 8.7]	669
Cc1nn(Cc2ccc(C(=O)Nc3cccc(F)c3)cc2)c(C)c1CC(=O)O [Example 9.1]	1480
Cc1nn(Cc2ccc(C(=O)Nc3ccc(Cl)c(F)c3)cc2)c(C)c1CC(=O)O [Example 9.2]	24.5
Cc1nn(Cc2ccc(C(=O)Nc3ccc(F)c(Cl)c3)cc2)c(C)c1CC(=O)O [Example 9.4]	18.6
Cc1nn(Cc2ccc(C(=O)Nc3cccc(C(F)(F)F)c3)cc2)c(C)c1CC(=O)O [Example 9.5]	13.7
Cc1nn(Cc2ccc(C(=O)Nc3ccc(Cl)c(C(F)(F)F)c3)cc2)c(C)c1CC(=O)O [Example 9.6]	3
Cc1nn(Cc2ccc(C(=O)Nc3cc(Cl)cc(Cl)c3)cc2)c(C)c1CC(=O)O [Example 9.8]	31
Cc1nn(Cc2ccc(C(=O)Nc3ccc(Br)c(F)c3)cc2)c(C)c1CC(=O)O [Example 9.9]	19.4

Compound	Ki [nM]
CCc1nn(Cc2ccc(C(=O)Nc3ccc(Cl)c(F)c3)cc2)c(CC)c1CC(=O)O [Example 9.11]	7.1
CCc1nn(Cc2ccc(C(=O)Nc3ccc(Cl)c(C(F)(F)F)c3)cc2)c(CC)c1CC(=O)O [Example 9.13]	0.9
CCc1nn(Cc2ccc(C(=O)Nc3ccc(F)c(Br)c3)cc2)c(CC)c1CC(=O)O [Example 9.14]	3.1
CC(C)(C)c1nn(Cc2ccc(C(=O)Nc3ccc(F)c(Cl)c3)cc2)c(C(C)(C)C)c1CC(=O)O [Example 9.15]	32
CCc1nn(Cc2ccc(C(=O)Nc3ccc(Br)c(F)c3)cc2)c(CC)c1CC(=O)O [Example 9.16]	6.7
CCc1nn(Cc2ccc(C(=O)NCc3ccc4ccccc4c3)cc2)c(CC)c1CC(=O)O [Example 9.17]	34.9
CCc1nn(Cc2ccc(C(=O)NCc3ccc(Cl)c(Cl)c3)cc2)c(CC)c1CC(=O)O [Example 9.18]	24.9
CCc1nn(Cc2ccc(C(=O)NCc3ccc(C(F)(F)F)cc3)cc2)c(CC)c1CC(=O)O [Example 9.20]	38
CCc1nn(Cc2ccc(C(=O)N[C@@H]3CCC[C@H](c4ccccc4)C3)cc2)c(CC)c1CC(=O)O [Example 9.22]	15.6
CCc1nn(Cc2ccc(C(=O)NC3CCC(C)(C)CC3)cc2)c(CC)c1CC(=O)O [Example 9.24]	49.1
CCc1nn(Cc2ccc(C(=O)NC3CCC4CCCCC4C3)cc2)c(CC)c1CC(=O)O (stereo not drawn) [Example 9.25]	32.1
CCc1nn(Cc2ccc(C(=O)NC3CCC(C(C)(C)C)CC3)cc2)c(CC)c1CC(=O)O (stereo not drawn) [Example 9.26]	39.4
CCc1nn(Cc2ccc(C(=O)Nc3ccc(Cl)c(C(F)(F)F)c3)cc2F)c(CC)c1CC(=O)O [Example 9.27]	0.5
CCc1nn(Cc2ccc(C(=O)NCc3cc4ccccc4o3)cc2F)c(CC)c1CC(=O)O [Example 9.28]	10.4
Cc1nn(Cc2ccc(S(=O)(=O)Nc3ccc(F)cc3)cc2)c(C)c1CC(=O)O [Example 10.1]	2.6
CCc1nn(Cc2ccc(S(=O)(=O)Nc3ccc(Cl)c(F)c3)cc2)c(CC)c1CC(=O)O [Example 10.5]	27.8
Cc1nn(Cc2ccc(C#Cc3ccc(C(F)(F)F)cc3)cc2)c(C)c1CC(=O)O [Example 12.1]	127
Cc1nn(Cc2ccc(/C=C/c3ccc(C(F)(F)F)cc3)cc2)c(C)c1CC(O)O [Example 12.2]	56.3

Continued by falling Ki, values first:

Ki [nM]	Compound
1660	Cc1cc(Cl)ccc1C(=O)Nc1ccc(Cn2nc(C)c(CCC(=O)O)c2C)cc1 [Example 8.1]
742	COc1ccc(CCNS(=O)(=O)c2ccc(Cn3nc(C)c(CC(=O)O)c3C)cc2)cc1OC [Example 10.2]
126	Cc1nn(Cc2ccc(NC(=O)c3ccc(Cl)c(Cl)c3)cc2)c(C)c1CCC(=O)O [Example 8.6]
125	Cc1nn(Cc2ccc(NC(=O)c3ccc(C(F)(F)F)cc3)cc2)c(C)c1CCC(=O)O [Example 8.2]
39.1	CCc1nn(Cc2ccc(C(=O)Nc3cccc(F)c3)cc2)c(CC)c1CC(=O)O [Example 9.10]
30.5	CCc1nn(Cc2ccc(C(=O)NCc3ccc(Cl)c(C(F)(F)F)c3)cc2)c(CC)c1CC(=O)O [Example 9.19]
29.4	Cc1nn(Cc2ccc(NC(=O)c3ccc(C(F)(F)F)cc3)cc2)c(C)c1CC(=O)NS(=O)(=O)C(C)(C)C [Example 11.1]
21.6	CCc1nn(Cc2ccc(S(=O)(=O)Nc3ccc(Cl)c(Cl)c3)cc2)c(CC)c1CC(=O)O [Example 10.4]
16.1	CCc1nn(Cc2ccc(S(=O)(=O)Nc3ccc(C)c(Cl)c3)cc2)c(CC)c1CC(=O)O [Example 10.3]
8.7	Cc1nn(Cc2ccc(C(=O)Nc3ccc(Cl)c(Cl)c3)cc2)c(C)c1CC(=O)O [Example 9.3]
7.8	CCc1nn(Cc2ccc(C(=O)N[C@H]3CC[C@H](c4ccccc4)CC3)cc2)c(CC)c1CC(=O)O [Example 9.21]
7.5	Cc1ccc(NC(=O)c2ccc(Cn3nc(C)c(CC(=O)O)c3C)cc2)cc1Cl [Example 9.7]
4.8	CCc1nn(Cc2ccc(C(=O)Nc3ccc(F)c(Cl)c3)cc2)c(CC)c1CC(=O)O [Example 9.12]
4.7	Cc1ccc(C(=O)Nc2ccc(Cn3nc(C)c(CC(=O)O)c3C)c(Cl)c2)c(C)c1 [Example 7.12]
4	CCc1nn(Cc2ccc(C(=O)Nc3ccc4ccccc4n3)cc2)c(CC)c1CC(=O)O [Example 9.23]
3.5	Cc1cc(C(F)(F)F)ccc1C(=O)Nc1ccc(Cn2nc(C)c(CC(=O)O)c2C)c(F)c1 [Example 7.16]
2.2	Cc1nn(Cc2ccc(NC(=O)c3ccc4ccccc4c3)cc2F)c(C)c1CC(=O)O [Example 7.20]
1.9	Cc1nn(Cc2ccc(NC(=O)/C=C/c3ccccc3)cc2F)c(C)c1CC(=O)O [Example 7.21]
1.6	Cc1cc(C(F)(F)F)ccc1C(=O)Nc1ccc(Cn2nc(C)c(CC(=O)O)c2C)c(Cl)c1 [Example 7.14]
1.1	Cc1nn(Cc2ccc(NC(=O)c3ccc(C(F)(F)F)cc3)cc2F)c(C)c1CC(=O)O [Example 7.17]
